Assay results published in PubChem BioAssay (NCI).
Where “and” joins values, the source holds several entries; their conditions need not be identical. Identical values can stand only once.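 Dose response: 5 concentrations. Exposure: 48 h. Format: 96-well plates. Endpoint: linear interpolation; highest concentration if not reached. Here, GI50 denotes the concentration required for 50% inhibition of growth. TGI marks complete inhibition of growth.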

What was measured:
Assay in all cases: DTP human tumour cell line panel, 48 h
SK-OV-3 ovarian = system: SK-OV-3 ovarian
OVCAR-8 ovarian = system: OVCAR-8 ovarian
A549 NSCLC = system: A549 NSCLC
HT29 colon = system: HT29 colon
EKVX NSCLC = system: EKVX NSCLC
NCI-H522 lung = system: NCI-H522 lung
SNB-19 CNS = system: SNB-19 CNS
HOP-62 NSCLC = system: HOP-62 NSCLC
SK-MEL-2 melanoma = system: SK-MEL-2 melanoma

Compound | TGI (SK-OV-3 ovarian) | TGI (OVCAR-8 ovarian) [µM] | TGI (A549 NSCLC) [µM] | TGI (HT29 colon) [µM] | TGI (EKVX NSCLC) [µM] | TGI (NCI-H522 lung) [µM] | TGI (SNB-19 CNS) [µM] | TGI (HOP-62 NSCLC) [µM] | TGI (SK-MEL-2 melanoma) [µM] | GI50 (SK-OV-3 ovarian) [µM] | GI50 (OVCAR-8 ovarian) [µM] | GI50 (A549 NSCLC) [µM] | GI50 (HOP-62 NSCLC) [µM] | GI50 (SNB-19 CNS) [µM]
CC1=CC(/C=C(\C)CCCc2ccoc2)C2(OC(=O)C(C)=C2O)[C@H]2C1CC[C@@H]2C (some centres undefined) | 69 µM | > 100 | > 100 | > 100 | > 100 | 31.2 | 42.6 |  |  |  |  |  |  | 
Cc1cc(Br)cc(C)c1NC(=O)C(=O)C(C(=O)c1ccc2ccccc2c1)C1OC(=O)c2ccccc21 (centres undefined) | > 100 µM | 22.8 | > 100 | 41.7 | 65.3 | 22.8 | 29.3 | 18.7 | 34.5 |  |  |  |  | 
CCCCN(CCCC)CC(C(=O)Nc1ccc([N+](=O)[O-])cc1[N+](=O)[O-])/C(C)=N\NC(=S)NN (centres undefined) | > 100 µM | > 100 | > 100 | > 100 | > 100 | 65.4 |  | > 100 | > 100 |  |  |  |  | 
CNC(=S)NC1CCCCC1NC(=S)NC (centres undefined) | > 100 µM | > 100 | > 100 | > 100 | > 100 | > 100 | > 100 | > 100 | > 100 |  |  |  |  | 
CCOC(=O)Oc1c(OC)cc(C(=O)NC2CCc3cc(OC)c(OC)c(OC)c3-c3ccc(SC)c(=O)cc32)cc1OC (centres undefined) | 0.466 µM and 0.0553 µM | 10.9 | > 70 | 0.489 | 37.9 | < 0.007 | 53.6 | 59.6 | 0.0832 | 0.00717 | 0.0155 | 0.0288 | 0.0328 | 0.0235
CC1=Nc2ccccc2C1C(Cc1ccccc1N)c1c(C)[nH]c2ccccc12 (centres undefined) | 53.3 µM | 32.6 | 32.8 | 33.1 | 37.7 | 31.6 | 41.6 | 27.9 | 23 |  |  |  |  | 
COc1ccc(OC)c(NC(=O)C(=O)NNC(=O)c2sc(NNC(C)=O)nc2C)c1 | > 100 µM | > 100 | > 100 | > 100 | > 100 | 44.3 | > 100 | > 100 | > 100 |  |  |  |  | 
O=C1CN=C(C[N+](=O)[O-])c2ccccc21 | > 100 µM | > 100 | > 100 | > 100 | > 100 | > 100 | > 100 | > 100 | > 100 |  |  |  |  | 
O=C(O/N=C1/CCCC/C1=C\c1ccccc1)c1ccccc1 | > 100 µM | > 100 | > 100 | > 100 | > 100 | > 100 | > 100 | > 100 | > 100 |  |  |  |  | 
O=C1CCCC/C(=C/c2ccccc2)N1 | > 100 µM | > 100 | > 100 | > 100 | > 100 | > 100 |  | > 100 | > 100 |  |  |  |  | 
COC(=O)c1cc2c3ccccc3n(C(C)=O)c2cn1 | > 100 µM | > 100 | > 100 | > 100 | > 100 | > 100 | > 100 | > 100 | > 100 |  |  |  |  | 
CCCCOC(=O)C1C(c2ccc(Cl)cc2)NC(c2ccc(Cl)cc2)C(C(=O)OCCCC)S1(=O)=O (centres undefined) | > 100 µM | > 100 | > 100 | > 100 | > 100 | > 100 | > 100 | > 100 | > 100 |  |  |  |  | 
COC(=O)C1=C(c2ccc3c(c2)OCO3)O[C@H](c2cc(OC)c(OC)c(OC)c2)[C@H]1COC(C)=O | 5.94 µM | 93.6 | 47.8 | 11.5 | > 100 |  |  | 84.7 | > 100 |  |  |  |  | 
COC(=O)C12C3C4C1C1C2C3C41C(=O)OC(C)(C)C (centres undefined) | > 100 µM | > 100 | > 100 | > 100 | > 100 | > 100 | > 100 | > 100 | > 100 |  |  |  |  | 
CC(C)(C)OC(=O)NCC(=O)OCc1ccccc1 | > 100 µM | > 100 | > 100 | > 100 |  |  | > 100 | > 100 | > 100 |  |  |  |  | 
CC1OC(n2cc(F)c(=O)[nH]c2=O)C=CC1O (centres undefined) | > 100 µM | > 100 | > 100 | > 100 | > 100 | > 100 | > 100 | > 100 | > 100 |  |  |  |  | 
O=C1c2ccccc2C2(Br)C(=O)c3ccccc3C12 (centres undefined) | > 100 µM | > 100 | > 100 | > 100 | > 100 | > 100 |  | > 100 | > 100 |  |  |  |  | 
